Assay results as given in publication PMC7321108, “1-Hydroxyanthraquinones Containing Aryl Substituents as Potent and Selective Anticancer Agents” (Molecules, 2020).
Read-outs that look alike come from different tables or passages of the source.

Key:
[1] = tested on: MT-4 cells of T-cellular human leucosis; assay: MTT cytotoxicity assay, MT-4; assay type: cell-based; conditions: MT4, 72 h incubation, mean ± SEM of three experiments, read-out: Cytotoxicity (GI50) against MT-4
Procedure: (§1) The cytotoxicity of the synthesized series of 4-substituted 5, 13–17, 22, 23, 2-substituted 25–30 and 2,4-disubstituted 1-hydroxy-9,10-anthraquinones 33–38, 40–45 was evaluated against a panel of seven different human cancer cell lines (glioblastoma cancer cells, human prostate cancer cells, T-cellular human leucosis, breast cancer cells) and also a normal cell line of hTERT-immortalized lung fibroblasts, using conventional MTT assay. Doxorubicin (DOX) is clinically used to treat cancer as drug in world and have a very wide antitumor spectrum. That we use them as positive control compounds. The cytotoxicity was determined by measuring the concentration inhibiting human tumor cell viability by 50% (GI50).
(§2) The human cancer cells of the glioblastoma (U-87MG, SNB-19, T98G), prostate cancer cell line (LNCAP, DU-145), the cells of T-cellular human leucosis (MT-4) and human breast cancer cells (MDA-MB-231) were used in this study. The cells were cultured in the RPMI-1640 medium that contained 10% embryonic calf serum, L-glutamine (2 mmol/L), gentamicin ([…]) and lincomycin (30 mkg/mL) in a CO2 incubator at 37 °C. The tested compounds were dissolved in DMSO and added to the cellular culture at the required concentrations. Three wells were used for each concentration. The cells which were incubated without the compounds were used as a control. Cells were placed on 96-well microliter plates and cultivated at 37 °C in 5% CO2/95% air for 72 h. The cell viability was assessed through an MTT [3-(4,5-dimethylthiazol-2-yl)-[…]-2H-tetrazolium bromide] conversion assay. A total of 1% MTT was added to each well. Four hours later, DMSO was added and mixed for 15 min. Optical density (D) of the samples was measured on a BioRad 680 multi-well spectrophotometer (USA) at the wavelength of 450 nm. The 50% cytotoxic dose GI50) of each compound (i.e., the compound concentration that causes the death of 50% of cells in a culture, or decreases the optical density twice as compared to the control wells) was calculated from the data obtained. Statistical processing of the results was performed using the Microsoft Excel-2007, […] 6.0 and GraphPad Prism 5.0 programs. The results are given as an average value ± a deviation from the average (mean ± standard error of the mean (SEM)). Reliability of differences (p) was estimated using the Student t test. The differences with p < 0.05 were considered as reliable. The experimental results are given as the data average values obtained from three independently conducted experiments.

[2] = tested on: U-87MG glioblastoma cells; assay: MTT cytotoxicity assay, U-87MG; assay type: cell-based; conditions: Homo sapiens, 72 h incubation, mean ± SEM of three experiments, read-out: Cytotoxicity (GI50) against U-87MG
Procedure: as §1, §2

[3] = tested on: SNB-19 glioblastoma cells; assay: MTT cytotoxicity assay, SNB-19; assay type: cell-based; conditions: Homo sapiens, 72 h incubation, mean ± SEM of three experiments, read-out: Cytotoxicity (GI50) against SNB-19
Procedure: as §1, §2

[4] = tested on: LNCAP prostate cancer cells; assay: MTT cytotoxicity assay, LNCAP; assay type: cell-based, human; conditions: 72 h incubation, mean ± SEM of three experiments, read-out: Cytotoxicity (GI50) against LNCAP
Procedure: as §1, §2

[5] = MTT cytotoxicity assay, normal hTERT-immortalized lung fibroblasts; assay type: cell-based; conditions: human, hTERT-immortalized lung fibroblasts (normal cell line), 72 h incubation, mean ± SEM of three experiments, read-out: Cytotoxicity (GI50) against hTERT Lung Fibroblasts
Procedure: as §1, §2

T98G glioblastoma cells = assay: MTT cytotoxicity assay, T98G; assay type: cell-based; conditions: Homo sapiens, 72 h incubation, mean ± SEM of three experiments, read-out: Cytotoxicity (GI50) against T98G
Procedure: as §1, §2

[6] = tested on: MDA-MB-231 breast cancer cells; assay: MTT cytotoxicity assay, MDA-MB-231; assay type: cell-based; conditions: Homo sapiens, 72 h incubation, mean ± SEM of three experiments, read-out: Cytotoxicity (GI50) against MDA-MB-231
Procedure: as §1, §2

[7] = tested on: DU-145 prostate cancer cells; assay: MTT cytotoxicity assay, DU-145; assay type: cell-based, human; conditions: Homo sapiens, DU-145, 72 h, 72 h incubation, mean ± SEM of three experiments, read-out: Cytotoxicity (GI50) against DU-145
Procedure: as §1, §2

Row | SMILES | GI50 [1] | GI50 [2] | GI50 [3] | GI50 ([4]; Homo sapiens, LNCaP, 72 h) | melting point | GI50 at 72 h [5] | GI50 (T98G glioblastoma cells) | GI50 [6] | GI50 [7] | GI50 [4]
1 | COc1cc(-c2ccc(O)c3c2C(=O)c2ccccc2C3=O)cc(OC)c1OC [Compound 5, 1-Hydroxy-4-(3,4,5-trimethoxyphenyl)anthracene-9,10-dione] | 42 ± 4.14 µM | > 100 µM | 6.7 ± 0.47 µM | 21.1 ± 0.85 µM | 230.5 °C (dec.) | 28.6 ± 4.54 µM | 72.5 ± 3.21 µM | 28.6 ± 1.24 µM | 14.8 ± 0.52 µM | 
2 | Cc1ccccc1-c1ccc(O)c2c1C(=O)c1ccccc1C2=O [Compound 14, 1-Hydroxy-4-(o-tolyl)anthracene-9,10-dione] | 65 ± 5.49 µM | > 100 µM | 38.1 ± 1.15 µM | 92 ± 3.93 µM |  | > 100 µM | > 100 µM | > 100 µM | 41.1 ± 3.34 µM | 
3 | O=C1c2ccccc2C(=O)c2c(-c3cc(F)cc(F)c3)ccc(O)c21 [Compound 17, 1-(3,5-Difluorophenyl)-4-hydroxyanthracene-9,10-dione] | 38.3 ± 3.16 µM | 8.2 ± 1.35 µM | 10.2 ± 0.86 µM | 16.7 ± 1.34 µM | 214.2 to 214.3 °C | 26.6 ± 2.44 µM | 9.2 ± 0.56 µM | 9.6 ± 0.69 µM | 3.5 ± 0.96 µM | 
4 | O=C1c2ccccc2C(=O)c2c(-c3cc(C(F)(F)F)ccc3Cl)ccc(O)c21 [Compound 18, 1-(2-Chloro-5-(trifluoromethyl)phenyl)-4-hydroxyanthracene-9,10-dione] |  |  |  |  | 184.3 °C (dec.) |  |  |  |  | 
5 | O=C1c2ccccc2C(=O)c2c(-c3ccc(Cl)cc3C(F)(F)F)ccc(O)c21 [Compound 19, 1-(4-Chloro-2-(trifluoromethyl)phenyl)-4-hydroxyanthracene-9,10-dione] |  |  |  |  | 186 °C (dec.) |  |  |  |  | 
6 | O=C1c2ccccc2C(=O)c2c(-c3ccco3)ccc(O)c21 [Compound 22, 1-(Furan-2-yl)-4-hydroxyanthracene-9,10-dione] | > 100 µM | > 100 µM | > 100 µM | 21.1 ± 0.85 µM | 141.8 °C (dec.) | 52.2 ± 8.01 µM | > 100 µM | > 100 µM | 24.2 ± 1.32 µM | 
7 | COc1cc(-c2ccc3c(c2O)C(=O)c2ccccc2C3=O)cc(OC)c1OC [Compound 24, 1-Hydroxy-2-(3,4,5-trimethoxyphenyl)anthracene-9,10-dione] |  |  |  |  | 190.1 °C (dec.) |  |  |  |  | 
8 | Cc1ccccc1-c1ccc2c(c1O)C(=O)c1ccccc1C2=O [Compound 26, 1-Hydroxy-2-(o-tolyl)anthracene-9,10-dione] | 80 ± 5.21 µM | > 100 µM | > 100 µM | 74 ± 3.74 µM | 148.5 °C (dec.) | 87.5 ± 9.11 µM | > 100 µM | > 100 µM | 70.2 ± 1.47 µM | 
9 | O=C1c2ccccc2C(=O)c2c1ccc(-c1cc(F)cc(F)c1)c2O [Compound 29, 2-(3,5-Difluorophenyl)-1-hydroxyanthracene-9,10-dione] | 36.6 ± 1.68 µM | 34.1 ± 2.18 µM | 15.3 ± 0.71 µM | 36.2 ± 2.05 µM | 264.3 °C (dec.) | 28.1 ± 2.12 µM | 29.6 ± 2.21 µM | 35.2 ± 1.88 µM | 13.8 ± 1.05 µM | 
10 | O=C1c2ccccc2C(=O)c2c1ccc(-c1cc(C(F)(F)F)ccc1Cl)c2O [Compound 30, 2-(2-Chloro-5-(trifluoromethyl)phenyl)-1-hydroxyanthracene-9,10-dione] | 55.1 ± 3.24 µM | 21.6 ± 1.42 µM | 16.8 ± 2.11 µM | > 100 µM | 188.5 °C (dec.) | 25.6 ± 5.24 µM | 39.2 ± 1.65 µM | 39.1 ± 1.71 µM | 12.5 ± 3.17 µM | 
11 | COc1cc(-c2cc(-c3cc(OC)c(OC)c(OC)c3)c3c(c2O)C(=O)c2ccccc2C3=O)cc(OC)c1OC [Compound 32, 1-Hydroxy-2,4-di-(3,4,5-trimethoxyphenyl)anthracene-9,10-dione] |  |  |  |  | 214.9 °C (dec.) |  |  |  |  | 
12 | O=C1c2ccccc2C(=O)c2c(O)c(-c3ccccc3)cc(-c3ccccc3)c21 [Compound 33, 1-Hydroxy-2,4-diphenylanthracene-9,10-dione] | > 100 µM | 56.8 ± 2.36 µM | 18.3 ± 1.12 µM | 21.3 ± 1.16 µM | 225 to 228 °C | 52.8 ± 8.05 µM | 24.6 ± 0.85 µM | 28.3 ± 1.06 µM | > 100 µM | 
13 | Cc1ccccc1-c1cc(-c2ccccc2C)c2c(c1O)C(=O)c1ccccc1C2=O [Compound 34, 1-Hydroxy-2,4-di-o-tolylanthracene-9,10-dione] | > 100 µM | > 100 µM | > 100 µM | > 100 µM | 119.8 °C (dec.) | 72.2 ± 4.18 µM | > 100 µM | > 100 µM | > 100 µM | 
14 | COc1cccc(-c2cc(-c3cccc(OC)c3OC)c3c(c2O)C(=O)c2ccccc2C3=O)c1OC [Compound 36, 2,4-Di-(2,3-dimethoxyphenyl)-1-hydroxyanthracene-9,10-dione] | 25.8 ± 0.94 µM | 36.8 ± 1.42 µM | 37 ± 1.41 µM | 16.7 ± 1.86 µM | 192.9 °C (dec.) | 12.2 ± 2.08 µM | 15.5 ± 0.92 µM | 22.6 ± 0.86 µM | 10.6 ± 1.12 µM | 
15 | O=C1c2ccccc2C(=O)c2c(O)c(-c3cc(F)cc(F)c3)cc(-c3cc(F)cc(F)c3)c21 [Compound 37, 2,4-Di-(3,5-difluorophenyl)-1-hydroxyanthracene-9,10-dione] | 56.6 ± 1.28 µM | 8.7 ± 0.89 µM | 9.1 ± 0.68 µM | 6.2 to 7.2 µM | 263.3 °C (dec.) | 10.5 ± 1.98 µM | 10.1 ± 0.78 µM | 8.2 ± 0.96 µM | 5.8 ± 0.38 µM | 6.2 ± 0.43 µM
16 | O=C1c2ccccc2C(=O)c2c(O)c(-c3cc(C(F)(F)F)ccc3Cl)cc(-c3cc(C(F)(F)F)ccc3Cl)c21 [Compound 38, 2,4-Di-(2-chloro-5-(trifluoromethyl)phenyl)-1-hydroxyanthracene-9,10-dione] | > 100 µM | > 100 µM | 39.4 ± 2.16 µM | > 100 µM |  | 19.4 ± 0.97 µM | 7.8 ± 0.56 µM | 32.5 ± 5.37 µM | 6.5 ± 0.89 µM | 
17 | O=C1c2ccccc2C(=O)c2c(O)c(-c3ccc(Cl)cc3C(F)(F)F)cc(-c3ccc(Cl)cc3C(F)(F)F)c21 [Compound 39, 2,4-Di-(4-Chloro-2-(trifluoromethyl)phenyl)-1-hydroxyanthracene-9,10-dione] |  |  |  |  | 150 to 152 °C |  |  |  |  | 
18 | COc1ccc(-c2cc(Br)c3c(c2O)C(=O)c2ccccc2C3=O)cc1 [Compound 40, 4-Bromo-1-hydroxy-2-(4-methoxyphenyl)anthracene-9,10-dione] | 35.6 ± 3.28 µM | 10.2 ± 1.03 µM | 6.1 ± 0.38 µM | 22.2 ± 1.26 µM | 187.1 °C (dec.) | 16.5 ± 0.46 µM | 8.1 ± 0.98 µM | 10.5 ± 1.03 µM | 7.1 ± 0.72 µM | 
19 | COc1ccc(-c2cc(-c3cc(OC)c(OC)c(OC)c3)c(O)c3c2C(=O)c2ccccc2C3=O)cc1 [Compound 44, 1-Hydroxy-4-(4-methoxyphenyl)-2-(3,4,5-trimethoxyphenyl)anthracene-9,10-dione] | 40.5 ± 6.44 µM | > 100 µM | 41.8 ± 5.27 µM | 14.2 ± 3.12 µM |  | 36.2 ± 1.31 µM | 16.5 ± 1.26 µM | 19.1 ± 0.98 µM | 15.2 ± 1.06 µM | 
